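The compound was tested at five concentrations on cells cultured in 96-well plates, with a 48-hour exposure period. GI50: concentration for 50% inhibition of growth.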 The source made the active and inactive calls. No stated cut-off is given here; in the data, active = GI50 up to about 1.1 µM and inactive = higher.
What was measured:
Test in all cases: NCI-60 cell line screen, 48 h
HOP-18 = tested on: HOP-18
M19-MEL = tested on: M19-MEL
LXFL 529 = tested on: LXFL 529
DMS-114 = tested on: DMS-114
XF498 = tested on: XF498
KM-20L2 = tested on: KM-20L2
SNB-78 = tested on: SNB-78
RXF 631 = tested on: RXF 631
DLD-1 = tested on: DLD-1

Row | SMILES | GI50 (HOP-18) | GI50 (M19-MEL) | GI50 (LXFL 529) | GI50 (DMS-114) | GI50 (XF498) | GI50 (KM-20L2) | GI50 (SNB-78) | GI50 (RXF 631) | GI50 (DLD-1)
1 | N#CC1(Cc2ccccc2Cl)c2ccccc2C=CN1C(=O)c1ccccc1 (configuration not stated) | > 100 µM (inactive) | > 100 µM (inactive) | 43.1 µM (inactive) | 96.8 µM (inactive) | 40.1 µM (inactive) | > 100 µM (inactive) | > 100 µM (inactive) | – | –
2 | CSc1ccc(/C=C2\CNC/C(=C\c3ccc(SC)cc3)C2=O)cc1 | – | – | 21.2 µM (inactive) | 34 µM (inactive) | 8 µM (inactive) | – | – | 22.6 µM (inactive) | –
3 | Cc1cc(N(CC(C)Br)CC(C)Br)ccc1/N=N/c1ccccc1C(=O)O (configuration not stated) | 2.64 µM (inactive) | 12.2 µM (inactive) | – | 1.22 µM (inactive) | 1.95 µM (inactive) | 8.75 µM (inactive) | 11.1 µM (inactive) | – | 3.93 µM (inactive)
4 | FC(F)(F)C1(Cl)C(c2ccccc2)=C1c1ccccc1 | 20.7 µM (inactive) | 14.6 µM (inactive) | 13.4 µM (inactive) | 12.9 µM (inactive) | 13.6 µM (inactive) | 16.2 µM (inactive) | 15.6 µM (inactive) | 15.1 µM (inactive) | 14.8 µM (inactive)
5 | CC(C)(C)c1cc(C=C(C#N)C#N)cc(C(C)(C)C)c1O [TYRPHOSTIN A9] | – | – | 0.518 µM (active) | 0.179 µM (active) | 0.776 µM (active) | 4.61 µM (inactive) | – | – | 0.828 µM (active)
6 | O=C(CCc1n[nH]c(=S)o1)Nc1ccc(Cl)cc1Cl | > 100 µM (inactive) | > 100 µM (inactive) | > 100 µM (inactive) | > 100 µM (inactive) | – | > 100 µM (inactive) | > 100 µM (inactive) | > 100 µM (inactive) | > 100 µM (inactive)
7 | Cc1ccc(S(=O)(=O)c2ccccn2)cc1 | > 100 µM (inactive) | > 100 µM (inactive) | > 100 µM (inactive) | > 100 µM (inactive) | > 100 µM (inactive) | > 100 µM (inactive) | > 100 µM (inactive) | > 100 µM (inactive) | > 100 µM (inactive)
8 | CN(C(=O)/C=C/c1ccccc1)C1C2CN3CCC(O2)C13 (configuration not stated) | > 100 µM (inactive) | – | > 100 µM (inactive) | > 100 µM (inactive) | > 100 µM (inactive) | > 100 µM (inactive) | > 100 µM (inactive) | – | > 100 µM (inactive)
9 | [N-]=[N+]=NC1(c2ccccc2)C(=O)C(Cl)=C(c2ccccc2)N(c2ccccc2)C1=O (configuration not stated) | > 100 µM (inactive) | > 100 µM (inactive) | 91.6 µM (inactive) | 46.2 µM (inactive) | – | > 100 µM (inactive) | 31.4 µM (inactive) | – | > 100 µM (inactive)
10 | COc1cc2c(c(OC)c1OC)-c1ccc(SC)c(=O)cc1[C@@H](NC(=O)c1ccc(OC(C)=O)cc1)CC2 | – | 0.0265 µM (active) | 0.0158 µM (active) | – | 0.0169 µM (active) | 0.0189 µM (active) | 0.00451 µM (active) | 0.0275 µM (active) | 0.0323 µM (active)
11 | C=CC[P@]1(=O)O[C@H](c2ccccc2)[C@H](C)N1C | 79.1 µM (inactive) | > 100 µM (inactive) | > 100 µM (inactive) | > 100 µM (inactive) | – | – | > 100 µM (inactive) | – | > 100 µM (inactive)
12 | c1ccc2c(c1)cc(C1NCCc3nc[nH]c31)c1ccccc12 (configuration not stated) | > 62.1 µM (inactive) | 29.6 µM (inactive) | 41.3 µM (inactive) | > 47.2 µM (inactive) | 22.5 µM (inactive) | 56.5 µM (inactive) | > 86.5 µM (inactive) | 50.8 µM (inactive) | 63.8 µM (inactive)
13 | COc1ccc(C(=O)c2cc(OC)c(OC)c(OC)c2)cc1 | > 100 µM (inactive) | 0.893 µM (active) | 0.221 µM (active) | 0.285 µM (active) | 0.432 µM (active) | 0.0715 µM (active) | 0.194 µM (active) | 0.184 µM (active) | 0.204 µM (active)
14 | O=C1NC2(CCCC2)C(=O)C12CCCC2 | > 100 µM (inactive) | > 100 µM (inactive) | > 100 µM (inactive) | – | > 100 µM (inactive) | – | > 100 µM (inactive) | > 100 µM (inactive) | > 100 µM (inactive)
15 | CC(=O)OC1(C#N)CC2OC1C1N=NN(C(=O)OC(C)(C)C)C21 (configuration not stated) | > 100 µM (inactive) | > 100 µM (inactive) | 32.3 µM (inactive) | 13.2 µM (inactive) | 89.7 µM (inactive) | > 100 µM (inactive) | 21.1 µM (inactive) | – | 14.7 µM (inactive)
16 | CC(C)OP(=O)(OC(C)C)/C(=N/Nc1ccc([N+](=O)[O-])cc1)NNC(=O)c1ccccc1 | – | 20.9 µM (inactive) | 20 µM (inactive) | 21.8 µM (inactive) | 24.8 µM (inactive) | 48.4 µM (inactive) | 24.4 µM (inactive) | – | 39.2 µM (inactive)
17 | N[C@H](C(=O)O)[C@H](Cl)CC(=O)O | > 100 µM (inactive) | > 100 µM (inactive) | > 100 µM (inactive) | > 100 µM (inactive) | > 100 µM (inactive) | > 100 µM (inactive) | > 100 µM (inactive) | – | > 100 µM (inactive)
18 | COC(=O)N/N=C(\C)C(CN(C)C)C(c1ccccc1)c1c(O)c2ccccc2oc1=O (configuration not stated) | – | > 100 µM (inactive) | > 100 µM (inactive) | > 100 µM (inactive) | > 100 µM (inactive) | > 100 µM (inactive) | > 100 µM (inactive) | – | > 100 µM (inactive)
19 | CCOC(=O)/C(=C/c1ccc(OC)cc1)N(CC)CC | – | > 100 µM (inactive) | > 100 µM (inactive) | > 100 µM (inactive) | > 100 µM (inactive) | > 100 µM (inactive) | 34.5 µM (inactive) | – | –
20 | O=C1C=CC(=O)c2c1ccc1c3ccccc3n(-c3ccccc3)c21 | 7.82 µM (inactive) | 16.5 µM (inactive) | 3.53 µM (inactive) | 16.9 µM (inactive) | 0.535 µM (active) | 17 µM (inactive) | 20.3 µM (inactive) | 25.4 µM (inactive) | 2.26 µM (inactive)
21 | C#CCOCn1cnc2ncnc(N)c21 | > 100 µM (inactive) | > 100 µM (inactive) | – | > 100 µM (inactive) | > 100 µM (inactive) | – | > 100 µM (inactive) | – | > 100 µM (inactive)
22 | COc1cc2c(cc1OC)-c1c3cc(O)ccc3nn[n+]1CC2 | > 100 µM (inactive) | > 100 µM (inactive) | > 100 µM (inactive) | > 100 µM (inactive) | > 100 µM (inactive) | > 100 µM (inactive) | > 100 µM (inactive) | – | > 100 µM (inactive)
23 | CC(=O)N(C)OC(=O)CC(=O)c1ccccc1 | – | > 100 µM (inactive) | > 100 µM (inactive) | > 100 µM (inactive) | > 100 µM (inactive) | > 100 µM (inactive) | > 100 µM (inactive) | > 100 µM (inactive) | > 100 µM (inactive)
24 | COC(=O)C1C(OCc2ccccc2)C2CCC1(OC)C=C2C (configuration not stated) | > 100 µM (inactive) | > 58.3 µM (inactive) | 59 µM (inactive) | > 57.1 µM (inactive) | > 45.1 µM (inactive) | > 100 µM (inactive) | > 100 µM (inactive) | – | > 100 µM (inactive)
25 | O=C(O)C(CS)NCc1c2ccccc2[n+]([O-])c2ccccc12 (configuration not stated) | 97.1 µM (inactive) | 33.6 µM (inactive) | 23.8 µM (inactive) | 22.8 µM (inactive) | – | 37.2 µM (inactive) | 38 µM (inactive) | 37.6 µM (inactive) | 31.6 µM (inactive)
26 | CC(C)(C)NNC(=O)CCn1[nH]c(=O)c(Cl)c(Cl)c1=O | > 100 µM (inactive) | > 100 µM (inactive) | > 100 µM (inactive) | > 100 µM (inactive) | > 100 µM (inactive) | > 100 µM (inactive) | – | > 100 µM (inactive) | > 100 µM (inactive)
